# Results as given in patent US9187472B2 (AbbVie Inc., priority 2012, dated 2015).
# pIC50: −log10 of the molar value.
# Tested on: PC3 cells
# Assay: NAMPT Cell Proliferation Assay
# Assay type: cell-based
# Details: Homo sapiens, PC-3, 120 h, 5 days incubation, cell viability by Cell Titer Glo
# Procedure: NAMPT Cell Proliferation Assay
# PC3 cells were seeded in 96-well black plates (Corning #3904) at 500 cells/well in 90 μl of RPMI media containing 10% heat-inactivated FBS and incubated overnight at 37° C. and 5% CO2 to allow cells to attach to wells. The following day, test compounds were serially diluted in neat DMSO to 1000× final concentrations prior to dilution with RPMI media to 10× and 1% DMSO. Ten μL of the 10× compounds were then transferred to wells containing cells to produce a dose response of 10-fold dilutions from 10 μM to 1×10^−5 μM. Cells were incubated for 5 days at 37° C. and 5% CO2, then cell viability was measured using Cell Titer Glo reagent (Promega #G7571). Percent inhibition values were calculated and fitted to a sigmoidal dose response curves using Assay Explorer software to determine IC50s.
row,SMILES,pIC50
1,"O=C(NCc1cn2ccnc2cn1)c1ccc(C2CCN(C(=O)c3ccccc3F)CC2)s1 [Example 827, 5-[1-(2-fluorobenzoyl)piperidin-4-yl]-N-(imidazo[1,2-a]pyrazin-6-ylmethyl)thiophene-2-carboxamide]",9.20
2,"O=C(NCc1cn2ccnc2cn1)c1ccc(C2CCN(C(=O)c3ccc(F)cc3)CC2)s1 [Example 828, 5-[1-(4-fluorobenzoyl)piperidin-4-yl]-N-(imidazo[1,2-a]pyrazin-6-ylmethyl)thiophene-2-carboxamide]",8.19
3,"O=C(NCc1cn2ccnc2cn1)c1ccc(C2CCN(C(=O)c3ccc(F)cc3F)CC2)s1 [Example 829, 5-[1-(2,4-difluorobenzoyl)piperidin-4-yl]-N-(imidazo[1,2-a]pyrazin-6-ylmethyl)thiophene-2-carboxamide]",8.75
4,"O=C(NCc1cn2ccnc2cn1)c1ccc(C2CCN(C(=O)c3cc(F)ccc3F)CC2)s1 [Example 830, 5-[1-(2,5-difluorobenzoyl)piperidin-4-yl]-N-(imidazo[1,2-a]pyrazin-6-ylmethyl)thiophene-2-carboxamide]",9.57
5,"O=C(NCc1ccc2ncnn2c1)c1ccc(C2CCN(C(=O)c3ccccc3F)CC2)s1 [Example 831, 5-[1-(2-fluorobenzoyl)piperidin-4-yl]-N-([1,2,4]triazolo[1,5-a]pyridin-6-ylmethyl)thiophene-2-carboxamide]",9.05
6,"O=C(NCc1ccc2ncnn2c1)c1ccc(C2CCN(C(=O)c3cccc(F)c3)CC2)s1 [Example 832, 5-[1-(3-fluorobenzoyl)piperidin-4-yl]-N-([1,2,4]triazolo[1,5-a]pyridin-6-ylmethyl)thiophene-2-carboxamide]",8.00
7,"O=C(NCc1ccc2ncnn2c1)c1ccc(C2CCN(C(=O)c3ccc(F)cc3)CC2)s1 [Example 833, 5-[1-(4-fluorobenzoyl)piperidin-4-yl]-N-([1,2,4]triazolo[1,5-a]pyridin-6-ylmethyl)thiophene-2-carboxamide]",7.15
8,"O=C(NCc1ccc2ncnn2c1)c1ccc(C2CCN(C(=O)c3ccc(F)cc3F)CC2)s1 [Example 834, 5-[1-(2,4-difluorobenzoyl)piperidin-4-yl]-N-([1,2,4]triazolo[1,5-a]pyridin-6-ylmethyl)thiophene-2-carboxamide]",7.90
9,"O=C(NCc1ccc2ncnn2c1)c1ccc(C2CCN(C(=O)c3cc(F)ccc3F)CC2)s1 [Example 835, 5-[1-(2,5-difluorobenzoyl)piperidin-4-yl]-N-([1,2,4]triazolo[1,5-a]pyridin-6-ylmethyl)thiophene-2-carboxamide]",8.40
10,"O=C(NCc1ccc2ncnn2c1)c1ccc(C2CCN(C(=O)c3cc(F)cc(F)c3)CC2)s1 [Example 836, 5-[1-(3,5-difluorobenzoyl)piperidin-4-yl]-N-([1,2,4]triazolo[1,5-a]pyridin-6-ylmethyl)thiophene-2-carboxamide]",7.17
11,"CC(C)C(=O)N1CCC(c2ccc(C(=O)NCc3cn4ccnc4cn3)s2)CC1 [Example 837, N-(imidazo[1,2-a]pyrazin-6-ylmethyl)-5-[1-(2-methylpropanoyl)piperidin-4-yl]thiophene-2-carboxamide]",8.56
12,"CC(C)CC(=O)N1CCC(c2ccc(C(=O)NCc3cn4ccnc4cn3)s2)CC1 [Example 838, N-(imidazo[1,2-a]pyrazin-6-ylmethyl)-5-[1-(3-methylbutanoyl)piperidin-4-yl]thiophene-2-carboxamide]",8.57
13,"CC1(C(=O)N2CCC(c3ccc(C(=O)NCc4cn5ccnc5cn4)s3)CC2)CC1 [Example 839, N-(imidazo[1,2-a]pyrazin-6-ylmethyl)-5-{1-[(1-methylcyclopropyl)carbonyl]piperidin-4-yl}thiophene-2-carboxamide]",9.22
14,"O=C(NCc1cn2ccnc2cn1)c1ccc(C2CCN(C(=O)CCC(F)(F)F)CC2)s1 [Example 840, N-(imidazo[1,2-a]pyrazin-6-ylmethyl)-5-[1-(4,4,4-trifluorobutanoyl)piperidin-4-yl]thiophene-2-carboxamide]",8.56
15,"O=C(NCc1cn2ccnc2cn1)c1ccc(C2CCN(C(=O)C3CCOCC3)CC2)s1 [Example 841, N-(imidazo[1,2-a]pyrazin-6-ylmethyl)-5-[1-(tetrahydro-2H-pyran-4-ylcarbonyl)piperidin-4-yl]thiophene-2-carboxamide]",8.21
16,"CC(C)C(=O)N1CCC(c2ccc(C(=O)NCc3ccc4ncnn4c3)s2)CC1 [Example 842, 5-[1-(2-methylpropanoyl)piperidin-4-yl]-N-([1,2,4]triazolo[1,5-a]pyridin-6-ylmethyl)thiophene-2-carboxamide]",7.15
17,"CC(C)CC(=O)N1CCC(c2ccc(C(=O)NCc3ccc4ncnn4c3)s2)CC1 [Example 843, 5-[1-(3-methylbutanoyl)piperidin-4-yl]-N-([1,2,4]triazolo[1,5-a]pyridin-6-ylmethyl)thiophene-2-carboxamide]",7.76
18,"CC[C@H](C)C(=O)N1CCC(c2ccc(C(=O)NCc3ccc4ncnn4c3)s2)CC1 [Example 844, 5-{1-[(2S)-2-methylbutanoyl]piperidin-4-yl}-N-([1,2,4]triazolo[1,5-a]pyridin-6-ylmethyl)thiophene-2-carboxamide]",7.83
19,"CC1(C(=O)N2CCC(c3ccc(C(=O)NCc4ccc5ncnn5c4)s3)CC2)CC1 [Example 845, 5-{1-[(1-methylcyclopropyl)carbonyl]piperidin-4-yl}-N-([1,2,4]triazolo[1,5-a]pyridin-6-ylmethyl)thiophene-2-carboxamide]",8.41
20,"O=C(NCc1ccc2ncnn2c1)c1ccc(C2CCN(C(=O)CC(F)(F)F)CC2)s1 [Example 846, N-([1,2,4]triazolo[1,5-a]pyridin-6-ylmethyl)-5-[1-(3,3,3-trifluoropropanoyl)piperidin-4-yl]thiophene-2-carboxamide]",7.13

# The remaining lines, values ahead:
row,pIC50,SMILES
1,7.03,"O=C(NCc1ccc2ncnn2c1)c1ccc(C2CCN(C(=O)CCC(F)(F)F)CC2)s1 [Example 847, N-([1,2,4]triazolo[1,5-a]pyridin-6-ylmethyl)-5-[1-(4,4,4-trifluorobutanoyl)piperidin-4-yl]thiophene-2-carboxamide]"
2,7.53,"O=C(NCc1ccc2ncnn2c1)c1ccc(C2CCN(C(=O)C3CCC(F)(F)CC3)CC2)s1 [Example 848, 5-{1-[(4,4-difluorocyclohexyl)carbonyl]piperidin-4-yl}-N-([1,2,4]triazolo[1,5-a]pyridin-6-ylmethyl)thiophene-2-carboxamide]"
3,7.20,"O=C(NCc1ccc2ncnn2c1)c1ccc(C2CCN(C(=O)C3CCOCC3)CC2)s1 [Example 849, 5-[1-(tetrahydro-2H-pyran-4-ylcarbonyl)piperidin-4-yl]-N-([1,2,4]triazolo[1,5-a]pyridin-6-ylmethyl)thiophene-2-carboxamide]"
4,7.27,"CC(C)(O)C(=O)N1CCC(c2ccc(C(=O)NCc3ccc4ncnn4c3)s2)CC1 [Example 850, 5-[1-(2-hydroxy-2-methylpropanoyl)piperidin-4-yl]-N-([1,2,4]triazolo[1,5-a]pyridin-6-ylmethyl)thiophene-2-carboxamide]"
5,6.88,"CN1CCC(C(=O)N2CCC(c3ccc(C(=O)NCc4ccc5ncnn5c4)s3)CC2)CC1 [Example 851, 5-{1-[(1-methylpiperidin-4-yl)carbonyl]piperidin-4-yl}-N-([1,2,4]triazolo[1,5-a]pyridin-6-ylmethyl)thiophene-2-carboxamide]"
6,8.08,"N#Cc1ccccc1C(=O)N1CCC(c2ccc(C(=O)NCc3ccc4ncnn4c3)s2)CC1 [Example 852, 5-[1-(2-cyanobenzoyl)piperidin-4-yl]-N-([1,2,4]triazolo[1,5-a]pyridin-6-ylmethyl)thiophene-2-carboxamide]"
7,8.00,"O=C(NCc1ccc2ncnn2c1)c1ccc(C2CCN(C(=O)c3ccccn3)CC2)s1 [Example 853, 5-[1-(pyridin-2-ylcarbonyl)piperidin-4-yl]-N-([1,2,4]triazolo[1,5-a]pyridin-6-ylmethyl)thiophene-2-carboxamide]"
8,9.38,"O=C(Cc1ccc2nccn2c1)Nc1ccc(NC(=O)CC2CCCC2)cc1 [Example 854, 2-cyclopentyl-N-{4-[(imidazo[1,2-a]pyridin-6-ylacetyl)amino]phenyl}acetamide]"
9,6.95,"CC(C)(C)OC(=O)N1CCC(c2ccc(C(=O)NCc3ccc4nccn4n3)cc2)CC1 [Example 855, tert-butyl 4-{4-[(imidazo[1,2-b]pyridazin-6-ylmethyl)carbamoyl]phenyl}piperidine-1-carboxylate]"
10,6.18,"O=C(CC1CCCC1)Nc1ccc(C(=O)NCc2ccc3nccn3n2)cc1 [Example 856, 4-[(cyclopentylacetyl)amino]-N-(imidazo[1,2-b]pyridazin-6-ylmethyl)benzamide]"
11,8.81,"O=C(NCc1ccn2ccnc2c1)c1ccc(-c2cc(C3CC3)nn2Cc2ccccc2)s1 [Example 857, 5-(1-benzyl-3-cyclopropyl-1H-pyrazol-5-yl)-N-(imidazo[1,2-a]pyridin-7-ylmethyl)thiophene-2-carboxamide]"
12,9.23,"CC(C)(C)Cn1cc(-c2ccc(C(=O)NCc3cn4ccnc4cn3)s2)cn1 [Example 858, 5-[1-(2,2-dimethylpropyl)-1H-pyrazol-4-yl]-N-(imidazo[1,2-a]pyrazin-6-ylmethyl)thiophene-2-carboxamide]"
13,7.98,"CC(C)S(=O)(=O)N1CCC(c2ccc(C(=O)NCc3ccc4ncnn4c3)s2)CC1 [Example 859, 5-[1-(propan-2-ylsulfonyl)piperidin-4-yl]-N-([1,2,4]triazolo[1,5-a]pyridin-6-ylmethyl)thiophene-2-carboxamide]"
